Data on nine compounds can be found in PubChem BioAssay (NCI).

SMILES strings stand for the structures.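 The compound was tested at five concentrations on cells cultured in 96-well plates, with a 48-hour exposure period. At the GI50, growth is halved. Definition used: TGI = concentration required for complete inhibition of growth.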

Assay in all cases: NCI tumour cell line growth inhibition, 48 h
Experiment [1] has as its system ACHN renal.
The subject of experiment [2] is HCT-116 colon.
Experiment [3] has as its system HS 578T breast.
In experiment [4] the test system is KM12 colon.
For experiment [5], the system named is MCF7 breast.
The subject of experiment [6] is RXF 393 renal.
Experiment [7] deals with SF-295 CNS.
Experiment [8] concerns SR leukemia.
Experiment [9] concerns TK-10 renal.
The test system of experiment [10] is UACC-257 melanoma.

For `Cc1cc(C)c2c(n1)sc1c(N)ncnc12`, the GI50 in [1] was 14.2 µM; in experiment [2] it was 24.4 µM; in [3] it was 11.4 µM; in experiment [4], above 22.3 µM; in experiment [5] it was above 25 µM; in experiment [6], 8.72 µM. The GI50 in [7] is above 25 µM; in experiment [8], 9.43 µM; in experiment [9], 10.1 µM; in experiment [10], above 25 µM. The TGI in experiment [1], in experiment [2], in [3], in experiment [4], in experiment [5] and in experiment [6] was above 25 µM each time. The TGI in [7], in experiment [8], in experiment [9] and in experiment [10] was above 25 µM each time.
For the compound `COc1ccc2c(c1OC)-c1c(c3ccc([N+](=O)[O-])cc3c(=O)n1CCCBr)C2=O`, the GI50 in [2] was 19 µM; in experiment [3] it was 70.6 µM; in experiment [4], above 100 µM; in experiment [5], 3.66 µM; in [7], 28.6 µM; in experiment [8], 4.67 µM. The GI50 in experiment [9] and in [10] was above 100 µM throughout. Also, the TGI in [2] was above 100 µM; in experiment [3], above 100 µM; in experiment [4], above 100 µM; in [5] it was 20.6 µM; in [7], above 100 µM; in experiment [8], above 100 µM. For the same compound, the TGI in experiment [9] and in experiment [10] was above 100 µM in each case.
Regarding `O=S1(=O)N(Cc2ccccc2)[C@@H](Cc2ccccc2)[C@H](O)[C@H](O)[C@H](Cc2ccccc2)N1Cc1ccccc1`, the GI50 in experiment [1] was 6.01 µM; in experiment [2], 2.43 µM; in [3], 3.27 µM; in experiment [4] it was 2.94 µM; in experiment [5], 4.77 µM; in experiment [6] it was 2.6 µM. Also, the GI50 in [7] was 2.62 µM; in [9], 3.77 µM; in experiment [10], 2.89 µM. The TGI in experiment [1] was above 20 µM; in [2], 5.05 µM; in [3] it was 8.38 µM; in experiment [4] it was 5.84 µM; in experiment [5], 13.6 µM; in experiment [6], 5.24 µM. Further, the TGI in experiment [7] came to 5.68 µM; in experiment [9], 8.38 µM; in experiment [10] it was 5.93 µM.
For the compound `Cn1cccc1-c1cc(-c2ccccc2)[nH]c(=O)c1C#N`, the GI50 in experiment [1], in experiment [2], in experiment [3], in [4], in experiment [5] and in experiment [6] was above 100 µM throughout. Further, the GI50 in experiment [7], in [9] and in experiment [10] was above 100 µM each time. Besides, the TGI in [1], in experiment [2], in [3], in experiment [4], in [5] and in experiment [6] was above 100 µM throughout. In addition, the TGI in experiment [7], in [9] and in experiment [10] was above 100 µM each time.
For the compound `CSc1ncc(Br)c(Sc2nc(N)nc3nc[nH]c23)n1`, the GI50 in experiment [1] was 4.5 µM; in experiment [2], 4.2 µM; in [3] it was 6.71 µM; in [4] it was 3.63 µM; in [5], 1.91 µM; in experiment [6], 2.97 µM. For the same compound, the figures for the GI50 in [7], in experiment [9] and in [10] were 1.15 µM, 2.45 µM and 3.23 µM, respectively. Also, the TGI in experiment [1] is 43.6 µM; in experiment [2], above 100 µM; in [3], above 100 µM; in experiment [4], 22.7 µM; in experiment [5], 11.9 µM; in experiment [6] it was 28.5 µM. For the same compound, the TGI in experiment [7] was above 100 µM; in [9] it was 15.8 µM; in experiment [10], 37.9 µM.
With `O=c1c2cc(-c3ccccc3)sc2ncn1Cc1ccc(Cl)c(Cl)c1`, the GI50 in experiment [1] was 22.7 µM; in experiment [2], 15 µM; in experiment [3], 11 µM; in experiment [4], 0.32 µM; in experiment [5] it was 12.1 µM; in [6] it was 17.1 µM. The GI50 in [7] was 12.3 µM; in experiment [8], 5.14 µM; in experiment [10], 62.2 µM. The TGI in [1] was 75.6 µM; in [2], 41.1 µM; in experiment [3] it was 45.1 µM; in experiment [4], 6.38 µM; in experiment [5], above 100 µM; in experiment [6], 48.2 µM. For the same compound, the TGI in [7] is 30.6 µM; in [8], 17.9 µM; in experiment [10] it was above 100 µM.
For the compound `[O-][N+]1(CC[N+]2([O-])CCCCC2)CCCCC1`, the TGI in experiment [1], in experiment [2], in experiment [3], in experiment [4], in [5] and in [6] was above 100 µM in each case. Moreover, the TGI in experiment [7], in [8] and in experiment [9] was above 100 µM in each case.
`O=c1cc(-c2ccc(O)cc2)oc2cc(O[C@@H]3O[C@H](CO)[C@@H](O)[C@H](O)[C@H]3O)cc(O)c12`: the TGI in experiment [1], in experiment [2], in [3], in experiment [4], in experiment [5] and in experiment [7] was above 100 µM throughout. Moreover, the TGI in experiment [8], in [9] and in experiment [10] was above 100 µM in each case.
In the case of `O=C1C2=C(C(=O)c3cnccc31)C1C=CC2CC1` (centres undefined), the GI50 was 1.65 µM in [2]; 2.77 µM in experiment [3]; 2.65 µM in [4]; 1.81 µM in [5]; 1.51 µM in experiment [6]; 5.36 µM in [7]. Further, the GI50 in [8] was 3.22 µM; in [9], 5.54 µM; in experiment [10], 1.72 µM. For the same compound, the TGI in experiment [2] was determined as 3.03 µM; in experiment [3], 6.6 µM; in experiment [4], 6.66 µM; in experiment [5] it was 3.74 µM; in [6], 2.85 µM; in experiment [7], 12.4 µM. Moreover, the TGI in experiment [8] is above 21.2 µM; in experiment [9], 10.4 µM; in [10] it was 3.17 µM.
